# Values quoted from earlier work as cited in patent US12134602B2 (Yale University, priority 2011, dated 2024).
# Conditions: in vivo
compound,measurement,value
"C/C=C1\[C@H]2C=C(C)C[C@]1(N)c1ccc(=O)[nH]c1C2 [(−)-Huperzine A, (−)-huperzine A]",tolerability,well tolerated
